Consider ten compounds from patent EP2905024A1 (Institut Quimic De Sarriá Cets, Fundació Privada, priority 2014, dated 2015).

Each structure is given as a SMILES string.

Data set [1] has as its system subgenomic HCV genotype 1b replicon, I389/NS3-3'/ LucUbiNeo-ET. The experiment in a line: in vitro antiviral activity: luciferase assay in LucUbiNeo-ET HCV replicon cells. Conditions: Hepatitis C virus, 48 h, 2 days of incubation, luciferase readout, mean of duplicates. It counts as cell-based. An excerpt:
(§1) To analyze the antiviral activity of the compounds, we used a stable cell line, LucUbiNeo-ET, that contains a subgenomic HCV genotype 1b replicon, I389/NS3-3'/ LucUbiNeo-ET, that express luciferase constitutively (Krieger et al, JVI 2001; 75:4614; Frese et al., JGV 2003; 84: 1253-1259). To evaluate the cellular toxicity, we use other cell line, Huh-7/Lunet (Friebe et al., JVI 2005; 79: 380-392), that originally carried a selectable luciferase HCV 1b replicon and was cured by treatment with an HCV-specific inhibitor. These cells are characterized by high permissiveness for HCV RNA replication. LucUbiNeo-ET cell line was cultured at 37°C in a humidified atmosphere with 5% CO2 in Dulbecco's modified Eagle medium (D-MEM) supplemented with high glucose concentration (4.5g/l) (Invitrogen), 10% (vol/vol) heat-inactivated fetal bovine serum (Hyclone, Cultek), 2mM L-Glutamine (Sigma-aldrich), 1mM sodium pyruvate (Sigma-aldrich), 1% MEM NEEA (Sigma-aldrich), and 0.5 mg/ml of Geneticin (G418) (Gibco, Invitrogen). Cured or Huh-7/Lunet cell line was maintained at the same conditions as described above without the addition of Geneticin.
(§2) Antiviral activity was carried out in white-clear bottom 96-well plates, and cytotoxicity assays were performed in clear 96-well plates. Cells were seeded at a density of 10^4/well in 100ul D-MEM without selection of antibiotics. After 24h, nine fivefold serial dilution of compounds, with 3 replicates at each dilution, were prepared in D-MEM and added to the appropriate wells, yielding concentrations of 125 to 0,00032 ug/ml in a final volume of 100 ul of D-MEM. Following 2 days of incubation, we determined the antiviral activity (EC50) by quantifying the luciferase with the Luciferase Bright Glo assay (Promega). Briefly, LucUbiNeo-ET cells were harvested with the addition of 100 ul of luciferase per well, and after 2 minutes of shaking, the light was read in a Luminometer Fluoroskan Ascent FL. Toxicity (CC50) was analysed in the Lunet/HuH7 cells by the addition of 10 ul of MTT (3-(4,5-dimethylthiazol-2-yl)-2,5-diphenyltetrazolium bromide) per well. After 4h of incubation at 37°C in a humidified atmosphere with 5% CO2, the amount of formazan produced was quantified spectrophotometrically at 550/620 nm [C. Pannecouque et al, Nature protocol 2008; 3 (3): 427-434]. The EC50 and CC50 values were calculated for each compound. These assays were done in duplicate and the results shown in Table 1 represent the mean value of these duplicates.

Data set [2] in a line: cytotoxicity assay (MTT). It counts as cell-based. As to conditions: human, Huh-7/Lunet cells (cured HCV replicon cells), Lunet/HuH7 cells, 2 days of incubation, mean of duplicates.
Source text: as §1, §2
A general note: A replicon is a self-replicating genome or part of one, used to study replication in cells.

In general, EC50 refers to the midpoint of the concentration-response curve. Lower therefore signals a more potent agent. The term CC50 denotes the concentration giving 50% cytotoxicity.

As for `Cn1c(=O)c(-c2ccccc2)cc2c(N)nc(Nc3ccccc3)nc21` [Example 50, 4-amino-8-methyl-6-phenyl-2-(phenylamino)pyrido[2,3-d]pyrimidine-7(8H)-one], the EC50 in data set [1] was below 1 µM. Also, the CC50 at 2 days in data set [2] is 10 to 25 µM.

In data set [1], `COc1ccc(Nc2nc3[nH]c(=O)c(-c4ccc(F)cc4)cc3c(=O)[nH]2)cc1` [Example 31, 6-(4-fluorophenyl)-2-((4-methoxyphenyl)amino)pyrido[2,3-d]pyrimidine-4,7(3H,8H)-dione] had an EC50 of 5 to 22 µM. In data set [2], this compound yielded a CC50 at 2 days of at least 25 µM.

In data set [1], `CCCOCCNc1nc(Nc2ccccc2)nc2c1CC(c1c(Cl)cccc1Cl)C(=O)N2` (centres unmarked) [Example 11, 6-(2,6-dichlorophenyl)-2-(phenylamino)-4-((2-propoxyethyl)amino)-5,6-dihydropyrido[2,3-d]pyrimidine-7(8H)-one] had a concentration for a half-maximal effect (EC50) of 5 to 22 µM. The compound also had a 50% cytotoxic concentration (CC50) at 2 days in data set [2] of at least 25 µM.

In data set [1], `CCCn1c(=O)c(-c2c(Cl)cccc2Cl)cc2c(N)nc(Nc3ccccc3)nc21` [Example 55, 4-amino-6-(2,6-dichlorophenyl)-2-(phenylamino)-8-propylpyrido[2,3-d] pyrimidine-7(8H)-one] returned an EC50 of 1 to 5 µM. In addition, the CC50 at 2 days in data set [2] is at least 25 µM.

In the case of `CCCOCCNc1nc(Nc2ccccc2)nc2c1cc(-c1c(Cl)cccc1Cl)c(=O)n2C` [Example 46, 6-(2,6-dichlorophenyl)-8-methyl-2-(phenylamino)-4-((2-propoxyethyl)amino)pyrido[2,3-d]pyrimidine-7(8H)-one], in data set [1], the EC50 is 5 to 22 µM. In addition, the 50% cytotoxic concentration (CC50) at 2 days in data set [2] was at least 25 µM.

For `O=C1Nc2nc(Nc3ccccc3)nc(On3nnc4ccccc43)c2CC1c1ccc(Cl)cc1Cl` (centres unmarked) [Example 6, 4-((1H-benzo[d][1,2,3]triazol-1-yl)oxy)-6-(2,4-dichlorophenyl)-2-(phenylamino)-5,6-dihydropyrido[2,3-d]pyrimidine-7(8H)-one], in data set [1], the EC50 was in the range of 1 to 5 µM. Also, in data set [2], the 50% cytotoxic concentration (CC50) at 2 days is below 10 µM.

`Nc1nc(Nc2ccccc2)nc2c1cc(-c1c(Cl)cccc1Cl)c(=O)n2CCO` [Example 59, 4-amino-6-(2,6-dichlorophenyl)-8-(2-hydroxyethyl)-2-(phenylamino) pyrido[2,3-d]pyrimidine-7(8H)-one]: the 50% effective concentration (EC50) in data set [1] was 1 to 5 µM. The compound also showed a 50% cytotoxic concentration (CC50) at 2 days in data set [2] of at least 25 µM.

Turning to `Cn1c(=O)c(-c2c(Cl)cccc2Cl)cc2c(N)nc(Nc3ccccc3)nc21` [Example 48, 4-amino-6-(2,6-dichlorophenyl)-8-methyl-2-(phenylamino)pyrido[2,3-d]pyrimidine-7(8H)-one], the EC50 in data set [1] was below 1 µM. Further, the CC50 at 2 days in data set [2] is below 10 µM.

`CC(C)Cn1c(=O)c(-c2c(Cl)cccc2Cl)cc2c(N)nc(Nc3ccccc3)nc21` [Example 57, 4-amino-6-(2,6-dichlorophenyl)-8-isobutyl-2-(phenylamino)pyrido[2,3-d] pyrimidine-7(8H)-one] showed an EC50 in data set [1] below 1 µM. This compound also showed a CC50 at 2 days in data set [2] of at least 25 µM.

In data set [1], `CN1CCN(c2ccc(Nc3nc(N)c4cc(-c5c(Cl)cccc5Cl)c(=O)n(C)c4n3)cc2)CC1` [Example 61] came in with an EC50 below 1 µM. The CC50 at 2 days in data set [2] is below 10 µM.
